In US4762843A, “Hetero [f] fused carbocyclic pyridines as dopaminergic agents” (Warner-Lambert Company, priority 1987, dated 1988):
Structures can show the parent of a compound that is named as a salt. Where two headings read alike, the source gives them in different places.

What was measured:
[1] = tested on: locomotor activity in mice; assay: Inhibition of locomotor activity in mice; format: in vivo; conditions: Mus musculus, read-out: Inhibition of Locomotor Activity in Mice (ED50)
Protocol: (§1) The compounds of formula I are valuable dopaminergic agents. […] Thus, the compounds of formula I were tested for their ability to inhibit locomotor activity in mice according to the assay described in Pharmacol. Biochem. Behav. 1978 (8) 97; for their ability to inhibit haloperidol binding in a receptor binding assay described in Mol. Pharmacol. 1976 (12) 800; and for their ability to inhibit dopamine synthesis in rats according to the protocol described in Naumyn-Schmiedeberg's Arch. Pharmacol., 1976 (296) 5. The above test methods are incorporated herein by reference.

haloperidol binding = target: T1, haloperidol binding (Bos taurus, UniProt P20288); assay: Inhibition of haloperidol binding in a receptor binding assay; conditions: read-out: Percent Inhibition Haloperidol Binding
T1 construct: from tissue
Protocol: as §1

dopamine synthesis = assay: Inhibition of dopamine synthesis in rats; format: in vivo; conditions: Rattus norvegicus, read-out: Percent Inhibition of Dopamine Synthesis
Protocol: as §1

T1 sequence (P20288 whole entry): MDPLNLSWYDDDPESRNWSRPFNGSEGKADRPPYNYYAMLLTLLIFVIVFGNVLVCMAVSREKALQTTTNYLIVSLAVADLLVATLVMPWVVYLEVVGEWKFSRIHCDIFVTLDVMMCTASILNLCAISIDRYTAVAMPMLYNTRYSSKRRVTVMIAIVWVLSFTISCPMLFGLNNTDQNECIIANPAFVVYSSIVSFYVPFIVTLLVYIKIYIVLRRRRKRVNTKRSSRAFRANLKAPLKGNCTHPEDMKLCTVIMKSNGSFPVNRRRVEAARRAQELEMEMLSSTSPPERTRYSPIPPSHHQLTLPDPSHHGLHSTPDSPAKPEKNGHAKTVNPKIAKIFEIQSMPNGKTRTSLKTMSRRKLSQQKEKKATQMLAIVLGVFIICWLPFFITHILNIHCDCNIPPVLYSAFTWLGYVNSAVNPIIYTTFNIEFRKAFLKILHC

`C=CCN1CCC=C2c3nc(NC(C)=O)sc3CCC21` (racemic) [Example 15b, (±) N-[4,5,5a,6,7,8-Hexahydro-6-(2-propenyl)thiazolo [4,5-f]quinolin-2-yl]acetamide] showed an ED50 ([1]; mice, IP) of 3.1 mg/kg, an inhibition at 10 µM (haloperidol binding; at 1 × 10^-5) of 21% and an inhibition at 5 mg/kg (dopamine synthesis; rats, at 5 mg/kg) of 82%.
With `CCN1CCC=C2c3nc(N)sc3CCC21` (racemic) [Example 5b, (±) 6-Ethyl-4,5,5a,6,7,8-hexahydrothiazolo[4,5-f]quinolin-2-amine] the ED50 ([1]; ip) was 0.62 mg/kg, the inhibition at 5 µM (haloperidol binding) was 68% and the inhibition at 1 mg/kg (dopamine synthesis) was 60%.
`Nc1nc2c(s1)CCC1NCCC=C21` (racemic) [Example 40, (±) 4,5,5a,6,7,8-Hexahydrothiazolo[4,5-f]quinolin-2-amine, dihydrochloride] showed an ED50 ([1]; ip) of 11.6 mg/kg, an inhibition at 5 µM (haloperidol binding) of 77% and an inhibition at 10 mg/kg (dopamine synthesis) of 44%.
`Nc1nc2c(s1)CCC1C2=CCCN1CCc1ccccc1` (racemic) [Example 5f, (±) 4,5,5a,6,7,8-Hexahydro-6-(2-phenylethyl)thiazolo [4,5-f]quinolin-2-amine] gave an ED50 ([1]; mice, IP) of 31.3 mg/kg and an inhibition at 5 µM (haloperidol binding; at 5 × 10^-6 M) of 67%.
With `C=CCN1CCC=C2c3nc(N)sc3CCC21` (racemic) [Example 5d, (±) 4,5,5a,6,7,8-Hexahydro-6-(2-propenyl)thiazolo [4,5-f]quinolin-2-amine, dihydrochloride] the ED50 ([1]; ip) was 0.24 mg/kg and the inhibition at 5 mg/kg (dopamine synthesis) was 100%.
`CCCN1CCC=C2c3nc(N)sc3CCC21` (racemic) [Example 5, (±) 4,5,5a,6,7,8-Hexahydro-6-propylthiazolo[4,5-f]quinolin-2-amine] showed an ED50 ([1]; ip) of 5.5 mg/kg, an inhibition at 1 µM (haloperidol binding) of 43% and an inhibition at 5 mg/kg (dopamine synthesis) of 53%.
In the case of `CCCN1CCC=C2c3nc(N)sc3CCC21` (single isomer, unassigned; (+)) [Example 16, (+) 4,5,5a,6,7,8-hexahydro-6-propylthiazolo[4,5-f]quinolin-2-amine, dihydrochloride], the ED50 ([1]; ip) is reported as 2.5 mg/kg, the inhibition at 5 µM (haloperidol binding) is reported as 76% and the inhibition at 3 mg/kg (dopamine synthesis) is reported as 100%.
For `CN1CCC=C2c3nc(N)sc3CCC21` (racemic) [Example 5a, (±) 4,5,5a,6,7,8-Hexahydro-6-methylthiazolo[4,5-f]quinolin-2-amine], the ED50 ([1]; ip) was 2.6 mg/kg, the inhibition at 5 µM (haloperidol binding) was 62% and the inhibition at 10 mg/kg (dopamine synthesis) was 92%.
In the case of `Nc1nc2c(s1)CCC1C2=CCCN1CC1CC1` (racemic) [Example 5e, (±) 6-(Cyclopropylmethyl)-4,5,5a,6,7,8-hexahydrothiazolo[4,5-f]quinolin-2-amine, dihydrochloride], the ED50 ([1]; ip) is reported as 12 mg/kg and the inhibition at 1 µM (haloperidol binding) is reported as 62%.
Work on `CCCN1CCC=C2c3nc(NC(C)=O)sc3CCC21` (racemic) [Example 15a, (±) N-(4,5,5a,6,7,8-Hexahydro-6-propylthiazolo[4,5-f]quinolin-2-yl)acetamide] yielded an ED50 ([1]; mice, IP) of 16.3 mg/kg and an inhibition at 5 µM (haloperidol binding; at 5 × 10^-6 M) of 23%.
`Nc1nc2c(s1)CCC1C2=CCCN1Cc1ccccc1` (racemic) [Example 5g, (±) 4,5,5a,6,7,8-Hexahydro-6-(phenylmethyl)thiazolo [4,5-f]quinolin-2-amine, dihydrochloride, hydrate] was tested, and the ED50 ([1]; mice, IP) was 26.1 mg/kg and the inhibition at 5 µM (haloperidol binding; at 5 × 10^-6 M) was 61%.
With `CCCCN1CCC=C2c3nc(N)sc3CCC21` (racemic) [Example 5c, (±) 6-Butyl-4,5,5a,6,7,8-hexahydrothiazolo[4,5-f]quinolin-2-amine, dihydrochloride, hemihydrate] the ED50 ([1]; ip) was 14.7 mg/kg, the inhibition at 10 µM (haloperidol binding) was 70% and the inhibition at 10 mg/kg (dopamine synthesis) was 18%.
For `CCCN1CCC[C@H]2c3sc(N)nc3CC[C@@H]21` (racemic) [Example 17, (±) trans-4,5,5a,6,7,8,9,9a-Octahydro-6-propylthiazolo[5,4-f]quinolin-2-amine], the ED50 ([1]; ip) was 0.7 mg/kg, the inhibition at 1 µM (haloperidol binding) was 37% and the inhibition at 5 mg/kg (dopamine synthesis) was 100%.
